Experimental data as given in patent US20260041653A1, “AN HDAC INHIBITOR FOR TREATING CANCER WITH A MODIFIED STK11 ACTIVITY OR EXPRESSION” (Tango Therapeutics, Inc., priority 2022, published 2026).

Test system: MC38_sgStk11 tumor
Experiment: Anti-tumor efficacy in murine subcutaneous MC38_sgStk11 tumor model
Format: in vivo, Mus musculus
Conditions: for T/C / TGI %: day 11
Experimental: Summary: An in vivo anti-tumor efficacy of double combination treatment of Anti-PD1 and HDAC1,2-selective inhibitor in a murine subcutaneous MC38_sgStk11 tumor model in […] mice was performed.
96 mice plus 39 spare mice of the species: Mus musculus: strain: C57BL/6; age 8-10 weeks; sex: female; and body weight: 16.9-20.0 g
The MC38_sgStk11 tumor cells were maintained in vitro as a monolayer culture in DMEM+2 mM glutamine supplemented with about 10% heat inactivated fetal bovine serum, about 100 U/ml penicillin and 100 μg/ml streptomycin at about 37° C. in an atmosphere of about 5% CO2 in air. The tumor cells were routinely sub-cultured twice weekly by trypsin-EDTA treatment. The cells growing in an exponential growth phase were harvested and counted for tumor inoculation.
Each mouse was inoculated subcutaneously at the right upper flank with MC38_sgStk11 tumor cells (0.5×106) in 0.1 ml of PBS for tumor development. Treatments were started on day 4 after tumor inoculation when the average tumor size reached 52 mm^3. The animals were assigned into groups according to a sorting standard operating procedures based upon their tumor volumes. Each group consisted of 8 tumor bearing mice. The testing article was administrated to the mice according to the predetermined regimen as shown in the experimental design table (Table 1-1).
All the procedures related to animal handling, care and the treatment in the study were performed according to the guidelines approved by the Institutional Animal Care and Use Committee (IACUC) of vendor following the guidance of the Association for Assessment and Accreditation of Laboratory Animal Care (AAALAC). At the time of routine monitoring, the animals were daily checked for any effects of tumor growth and treatments on normal behavior such as mobility, food and water consumption, body weight gain/loss (body weights were measured three times per week), eye/hair matting and any other abnormal effect as stated in the protocol. Death and observed clinical signs were recorded on the basis of the numbers of animals within each subset.
A primary endpoint was to see if the tumor growth could be delayed or mice could be cured. Tumor size was measured three times per week in two dimensions using a caliper, and the volume was expressed in mm3 using the formula: V=0.5 a×b2 where a and b are the long and short diameters of the tumor, respectively. The T/C value (in percent) is an indication of antitumor effectiveness; T and C are the mean volume of the treated and control groups, respectively, on a given day. TGI is calculated for each group using the formula: TGI (%)=[1−(Ti−T0)/(Vi−V0)]×100; Ti is the average tumor volume of a treatment group on a given day, T0 is the average tumor volume of the treatment group on the day of treatment start, Vi is the average tumor volume of the vehicle control group on the same day with Ti, and V0 is the average tumor volume of the vehicle group on the day of treatment start.
Statistical analysis of difference in the tumor volume among the groups were conducted on the data obtained at the best therapeutic time point at the day 11 after the start of treatment. A one-way ANOVA was performed for comparisons between groups. The survival analysis between groups was carried out with Kaplan-Meier test. p<0.05 was considered to be statistically significant.

[1] = Gr 2: Compound I 3 mg/kg PO QD + Anti-IgG2a 10 mg/kg IP BIW
[2] = Gr 3: Compound I 10 mg/kg PO QD + Anti-IgG2a 10 mg/kg IP BIW
[3] = Gr 4: Compound I 30 mg/kg PO QD + Anti-IgG2a 10 mg/kg IP BIW
[4] = Gr 5: Compound I 75 mg/kg PO QD + Anti-IgG2a 10 mg/kg IP BIW

## C[S@@](=N)(=O)c1ccc(C(=O)Nc2cc(-c3ccc(F)cc3)ccc2N)cc1 [Compound I, (R)—N-(4-amino-4′-fluoro-[1,1′-biphenyl]-3-yl)-4-(S-methylsulfonimidoyl)benzamide]
[1]
  CR (complete regression): 0.0%
  ORR (CR + PR): 0.0%
  PR (partial regression): 0.0%
  T/C: 98.7%
  TGI %: 1.3%
Gr 2: Compound I 3 mg/kg PO QD + Anti-IgG2a 10 mg/kg IP BIW, day 0 of treatment
  Tumor Volume: 52 ± 2 mm^3
Gr 2: Compound I 3 mg/kg PO QD + Anti-IgG2a 10 mg/kg IP BIW, day 2 of treatment
  Tumor Volume: 208 ± 6 mm^3
Gr 2: Compound I 3 mg/kg PO QD + Anti-IgG2a 10 mg/kg IP BIW, day 4 of treatment
  Tumor Volume: 489 ± 23 mm^3
Gr 2: Compound I 3 mg/kg PO QD + Anti-IgG2a 10 mg/kg IP BIW, day 7 of treatment
  Tumor Volume: 925 ± 98 mm^3
Gr 2: Compound I 3 mg/kg PO QD + Anti-IgG2a 10 mg/kg IP BIW, day 9 of treatment
  Tumor Volume: 1439 ± 130 mm^3
Gr 2: Compound I 3 mg/kg PO QD + Anti-IgG2a 10 mg/kg IP BIW, day 11 of treatment
  Tumor Volume: 2105 ± 184 mm^3
Gr 2: Compound I 3 mg/kg PO QD + Anti-IgG2a 10 mg/kg IP BIW, day 14 of treatment
  Tumor Volume: 2876 ± 196 mm^3
Gr 2: Compound I 3 mg/kg PO QD + Anti-IgG2a 10 mg/kg IP BIW, day 16 of treatment
  Tumor Volume: 3215 ± 79 mm^3
[2]
  CR (complete regression): 0.0%
  ORR (CR + PR): 0.0%
  PR (partial regression): 0.0%
  T/C: 65.8%
  TGI %: 35.0%
Gr 3: Compound I 10 mg/kg PO QD + Anti-IgG2a 10 mg/kg IP BIW, day 0 of treatment
  Tumor Volume: 52 ± 2 mm^3
Gr 3: Compound I 10 mg/kg PO QD + Anti-IgG2a 10 mg/kg IP BIW, day 2 of treatment
  Tumor Volume: 213 ± 10 mm^3
Gr 3: Compound I 10 mg/kg PO QD + Anti-IgG2a 10 mg/kg IP BIW, day 4 of treatment
  Tumor Volume: 473 ± 38 mm^3
Gr 3: Compound I 10 mg/kg PO QD + Anti-IgG2a 10 mg/kg IP BIW, day 7 of treatment
  Tumor Volume: 735 ± 82 mm^3
Gr 3: Compound I 10 mg/kg PO QD + Anti-IgG2a 10 mg/kg IP BIW, day 9 of treatment
  Tumor Volume: 1059 ± 167 mm^3
Gr 3: Compound I 10 mg/kg PO QD + Anti-IgG2a 10 mg/kg IP BIW, day 11 of treatment
  Tumor Volume: 1403 ± 270 mm^3
Gr 3: Compound I 10 mg/kg PO QD + Anti-IgG2a 10 mg/kg IP BIW, day 14 of treatment
  Tumor Volume: 1923 ± 343 mm^3
Gr 3: Compound I 10 mg/kg PO QD + Anti-IgG2a 10 mg/kg IP BIW, day 16 of treatment
  Tumor Volume: 2101 ± 176 mm^3
Gr 3: Compound I 10 mg/kg PO QD + Anti-IgG2a 10 mg/kg IP BIW, day 18 of treatment
  Tumor Volume: 2570 ± 205 mm^3
Gr 3: Compound I 10 mg/kg PO QD + Anti-IgG2a 10 mg/kg IP BIW, day 21 of treatment
  Tumor Volume: 3275 ± 64 mm^3
[3]
  CR (complete regression): 0.0%
  ORR (CR + PR): 0.0%
  PR (partial regression): 0.0%
  T/C: 49.5%
  TGI %: 51.8%
Gr 4: Compound I 30 mg/kg PO QD + Anti-IgG2a 10 mg/kg IP BIW, day 0 of treatment
  Tumor Volume: 52 ± 2 mm^3
Gr 4: Compound I 30 mg/kg PO QD + Anti-IgG2a 10 mg/kg IP BIW, day 2 of treatment
  Tumor Volume: 212 ± 14 mm^3
Gr 4: Compound I 30 mg/kg PO QD + Anti-IgG2a 10 mg/kg IP BIW, day 4 of treatment
  Tumor Volume: 484 ± 37 mm^3
Gr 4: Compound I 30 mg/kg PO QD + Anti-IgG2a 10 mg/kg IP BIW, day 7 of treatment
  Tumor Volume: 734 ± 64 mm^3
Gr 4: Compound I 30 mg/kg PO QD + Anti-IgG2a 10 mg/kg IP BIW, day 9 of treatment
  Tumor Volume: 883 ± 84 mm^3
Gr 4: Compound I 30 mg/kg PO QD + Anti-IgG2a 10 mg/kg IP BIW, day 11 of treatment
  Tumor Volume: 1055 ± 101 mm^3
Gr 4: Compound I 30 mg/kg PO QD + Anti-IgG2a 10 mg/kg IP BIW, day 14 of treatment
  Tumor Volume: 1481 ± 146 mm^3
Gr 4: Compound I 30 mg/kg PO QD + Anti-IgG2a 10 mg/kg IP BIW, day 16 of treatment
  Tumor Volume: 1977 ± 272 mm^3
Gr 4: Compound I 30 mg/kg PO QD + Anti-IgG2a 10 mg/kg IP BIW, day 18 of treatment
  Tumor Volume: 2344 ± 368 mm^3
Gr 4: Compound I 30 mg/kg PO QD + Anti-IgG2a 10 mg/kg IP BIW, day 21 of treatment
  Tumor Volume: 2602 ± 361 mm^3
Gr 4: Compound I 30 mg/kg PO QD + Anti-IgG2a 10 mg/kg IP BIW, day 23 of treatment
  Tumor Volume: 2794 ± 665 mm^3
Gr 4: Compound I 30 mg/kg PO QD + Anti-IgG2a 10 mg/kg IP BIW, day 25 of treatment
  Tumor Volume: 1551 mm^3
Gr 4: Compound I 30 mg/kg PO QD + Anti-IgG2a 10 mg/kg IP BIW, day 28 of treatment
  Tumor Volume: 2589 mm^3
Gr 4: Compound I 30 mg/kg PO QD + Anti-IgG2a 10 mg/kg IP BIW, day 30 of treatment
  Tumor Volume: 3550 mm^3
[4]
  CR (complete regression): 12.5%
  ORR (CR + PR): 12.5%
